Our source for the Change values is ChEMBL document CHEMBL1127220, “3-hydroxy-3-cyclobutene-1,2-dione: Application of novel carboxylic acid bioisostere to an in-vivo active non-tetrazole angiotensin-II antagonist” (Bioorg Med Chem Lett, 1993).

Molecules are shown by their SMILES.

The subject of this experiment is Rattus norvegicus. The experiment in a line: Maximum % change of AII-supported portion of mean arterial pressure at 3 mg/kg, i.d. It counts as functional, Artery. Conditions: route intraduodenal.
Regarding `CCCCc1nc(Cl)c(CO)n1Cc1ccc(-c2ccccc2-c2nnn[nH]2)cc1` [LOSARTAN], the Change was -72%.

Regarding `FC(F)(F)c1nc2c(c(NCc3ccc(-c4ccccc4-c4nn[nH]n4)cc3)n1)CCCC2`, the Change was -75%.

Take `O=S(=O)(Nc1ccccc1-c1ccc(CNc2nc(C(F)(F)F)nc3c2CCCC3)cc1)C(F)(F)F`: the Change is reported as -31%.

In the case of `O=c1c(O)c(-c2ccccc2-c2ccc(CNc3nc(C(F)(F)F)nc4c3CCCC4)cc2)c1=O`, the Change was -52%.

As for `O=C(O)c1ccccc1-c1ccc(CNc2nc(C(F)(F)F)nc3c2CCCC3)cc1`, the Change is recorded as -62%.
